The values that follow come from a melting point compilation (Tetko et al.; mined from patent text by program, amines drawn as free bases though some values may be those of a salt).

The melting point is the temperature, or range, at which the solid turns liquid.

`Cn1c(C(F)(F)F)cc(=O)n(-c2cc(OC(=O)Nc3cccc(C(F)(F)F)c3)c(Cl)cc2F)c1=O`: the melting point was 153 to 155 °C.

In turn, `O=c1[nH]ncc(N2CCN(Cc3ccccc3)CC2)c1Cl` yielded a melting point of 173 to 175 °C. Under `CC1=C(C)C(=O)C(CCCCC#CCCCC#CCOC(N)=O)=C(C)C1=O` stands 56 to 57 °C. Under `C#CCOc1ccccc1S(N)(=O)=O` stands 143 to 145 °C; under `CN1CCN(CCCn2c(NC(=O)c3ccc(Cl)c(Cl)c3)nc3ccccc32)CC1`, 166 to 168 °C. Under `CC(C)Sc1cc2c(cc1Cl)N=CNS2(=O)=O` stands 231 to 232 °C.

As for `COc1ccc(C=CC=Cc2ccccc2)cc1`, the melting point lay in the range of 160 to 162 °C. Under `Nc1nc2c(c(Nc3ccc(F)cc3)n1)-c1ccccc1C2` stands 205 to 206 °C. Under `CCOC(=O)c1cccc2c3c([nH]c12)CN(CC(=O)NC(C(=O)C(F)(F)F)C(C)C)C=C3` (stereo not drawn) stands 218 to 219 °C; under `Nc1ccc2oc(=O)c(N)cc2c1`, 183 to 186 °C.

The compound `CCOC(=S)SC(=CC(=O)c1cc(Cl)c(C)c(Cl)c1)C(=O)O` registered a melting point of 126 to 128 °C. For the compound `Cc1cn(N)c2ccccc12`, the melting point was 60 to 63 °C. Next, `OC(COc1ccccc1-n1cccc1)CN1CCOCC1` (stereo not drawn): 81 to 82 °C; `CCOC(=O)C1=C(C#N)NC(C)=C(C(=O)OCCOCc2ccccc2)C1c1ccccc1[N+](=O)[O-]` (stereo not drawn): 139 to 140 °C; `Clc1cc(NCCc2c[nH]cn2)ccn1`: 164 to 165 °C. Under `CCc1cc(C(=O)c2ccccc2Cl)c(-n2c(C)nnc2CNC(=O)c2ccccc2)s1` stands 160 to 161 °C; under `Cc1c(Cc2ccccc2)c2c(c(C)c1NC(=O)CC(C)(C)C)CC(C)(C)O2`, 129 to 130 °C.

As to `COC(=O)c1ccc(OC)c(NC(=NCl)c2ccc(Cl)cc2)c1`, the melting point was found to be 120 °C. Take `COC(=O)Cc1ccc(OCCNC(=O)C2Cc3ccccc3N2S(=O)(=O)c2ccc(-c3ccc(Cl)cc3)c(C(F)(F)F)c2)cc1` (stereo not drawn): the melting point is 60 °C.

As to `CC(C)(N)CNc1ccc(C2=NNC(=O)CC2)cc1`, the melting point fell in the range of 190 to 192 °C. For the compound `COc1c(C=CC(=O)O)cccc1Oc1ccccc1C`, the melting point fell in the range of 143 to 146 °C. Under `COc1cc2cc(CO)nc(-c3ccnc(NN)c3)c2cc1OC` stands 157 to 159 °C; under `CC(C)(C)C(NC(=O)COc1ccccc1)Nc1c(Nc2cccnc2)c(=O)c1=O` (stereo not drawn), 227 to 228 °C; under `N#CNC(=N)CCc1ccccc1Sc1ccccc1CCC(=N)NC#N`, 188 to 190 °C. Next, `O=C(NCCO)c1cnc(NCCO)cc1Nc1ccc(I)cc1F`: above 250 °C; `CCOC(=O)CN(CC1Nc2cc(Cl)c(S(N)(=O)=O)cc2S(=O)(=O)N1)C(=O)C(C)CSC(C)=O` (stereo not drawn): 127 to 130 °C; `CO/C=C(/C(=O)OC)c1ccccc1Oc1nc(Cl)nnc1Cl`: 140 to 142 °C.

The compound `COC(=O)c1cc(I)c(C(F)(F)F)cc1N` showed a melting point of 101 to 103 °C.

As to `CN(C)C1=NC2=NC3=C(CN(Cc4ccccc4)CC3=O)CN2N1`, the melting point lay within 279 to 281 °C.

Regarding `COC(=O)Cc1ccc(OS(=O)(=O)C(F)(F)F)c(NC(C)=O)c1`, the melting point lay in the range of 68.5 to 70 °C. On to `CN(C)C=CC(=O)c1c[nH]c2ccccc12`, for which the melting point fell in the range of 239 to 245 °C. Next, `CC#CCN(C)c1ccc(OC23CC4CC(CC(C4)C2)C3)cc1`: 180 to 181 °C; `CC(C)(C)c1ccc(OCC(=O)NCc2ccc(NS(C)(=O)=O)cc2)cc1`: 163 °C. Under `CC(=O)OCC1OC(n2cnc3c(NN4CCCCC4)nc(N)nc32)C(OC(C)=O)C1OC(C)=O` (stereo not drawn) stands 77 to 79 °C; under `CC(C)(C)OC(=O)N[C@@H](C(=O)N1CCC[C@H]1C(=O)NCC1CCc2nc(N)ncc2C1)C(c1ccccc1)c1ccccc1` (stereo partly drawn), 127 to 130 °C; under `CC(C)OP(=O)(OC(C)C)C(Nc1ccccn1)P(=O)(OC(C)C)OC(C)C`, 98 to 100 °C.

As to `Nc1cc(C(=O)NC2CCC2)n[nH]1`, the melting point came to 147 °C. The compound `O=[N+]([O-])c1cnn(-c2c(Cl)cc(C(F)(F)F)cc2Cl)c1` came in with a melting point of 91 to 97 °C. Next, `O=[N+]([O-])c1ccc(CCC2CCN(c3cc(Cl)nnc3Cl)CC2)cc1`: 162 to 164 °C; `CCOc1cccc(CC(=O)O)c1OCCCc1cn(-c2ccc(C(F)(F)F)cn2)nc1OCC`: 114 to 115 °C; `O=c1cc(-c2ccoc2)c2ccc(Sc3cc(F)cc(-c4ccccc4)c3)cc2o1`: 122 to 124 °C. Under `CCOCc1nc2cnc3cc(Br)ccc3c2n1CCN1CCN(C(=O)OC(C)(C)C)CC1` stands 140 to 143 °C; under `CC(C)c1cc(O)nc(-c2ccc(Cl)cc2)n1`, 164 °C; under `COc1cc(C=O)ccc1OCCCC(=O)O`, 143 to 148 °C.

As for `CC(C)(O)Cn1cnc2c(N)nc3cc(OCc4ccccc4)ccc3c21`, the melting point was 254 to 257 °C. Next, `COc1cc2c(cc1OCc1ccccc1)ncc1c(N)nc(-n3ccnc3)cc12`: 140 °C; `C=C(CN1CCOCC1)C(=O)O`: 121 to 125 °C. Under `CC(C)C(OC(=O)NC1(C(=O)O)CC1)OC(=O)C1CCCCC1` (stereo not drawn) stands 156 to 158 °C. In the case of `O=C1c2cc(O)ccc2CCN1Cc1cccnc1`, the melting point lay within 136 to 137 °C.

In turn, `CN1CCC(Oc2c(F)c(F)c(F)c(F)c2F)(c2ccc(C(F)(F)F)cc2)CC1` registered a melting point of 45 to 48 °C.

`CCOc1cc(OCC)c(C=[N+]([O-])C2CCCCC2)c(OCC)c1` returned a melting point of 146 °C. Under `Cc1ccc(S(=O)(=O)Oc2ccc(CN3CCOCC3)nc2)cc1` stands 68 to 69 °C.

Regarding `COC(=O)c1cc(CC(C)NCC(O)c2ccc(O)c(CO)c2)ccc1O` (stereo not drawn), the melting point is 65 to 69 °C.

The compound `CS(=O)(=O)Nc1cc(C(O)CNCCCCCCOCCCc2ccc(Cl)s2)ccc1O` (stereo not drawn) had a melting point of 85 to 87 °C. Under `Cc1cc(SCCc2cccc3sc(-c4ccc(C(F)(F)F)cc4)nc23)ccc1OCC(=O)O` stands 97 to 100 °C; under `CCOC(=O)c1cc(Cl)c(Cl)c(-c2cc(C)no2)c1C`, 86 to 88 °C. Next, `Cn1c([N+](=O)[O-])cnc1-c1nc(CCl)cs1`: 160 to 162 °C; `CCc1nc(C(=O)O)c(CC)c(C)c1C(c1cc(F)ccc1F)S(=O)(=O)c1ccc(F)cc1` (stereo not drawn): 151 to 153 °C; `Nc1ccc(CCN2CCN(c3nsc4ccccc34)CC2)cc1`: 154 °C.

Compound `NS(=O)(=O)c1ccc(-c2cc3n(c2-c2ccc(F)cc2)CCC3)cc1` had a melting point of 207 °C.

As for `CC(=C(C#N)C(=O)Nc1ccccc1C(C)C)N(C)C`, the melting point is 74 to 78 °C.

In turn, `CC(C)(C)OC(=O)N[C@H](C(=O)N1CCC[C@H]1C(=O)NC1CCc2nc(N)ncc2C1)C(c1ccccc1)c1ccccc1` (stereo partly drawn) showed a melting point of 127 to 130 °C. Next, `CCC(CC)N(O)C(=O)Nc1ccc([N+](=O)[O-])cc1`: 169 to 170 °C; `Cc1c(NC(=O)C(CS)Cc2ccccc2)cccc1C(=O)O` (stereo not drawn): 179 to 181 °C. `COC(=O)c1ccc2scc(Br)c2c1`: the melting point is 93 to 94 °C.

The compound `CCCOc1ncc(I)cc1C(=O)Nc1c(CC)nn(CCN2CCOCC2)c1C(N)=O` returned a melting point of 180 °C. `Nc1ncccc1OCc1cc2c(cc1Cl)OCO2` gave a melting point of 100 to 104 °C. Next, `CS(=O)(=O)c1ccc(C2=C(c3ccccc3)C(=O)OC2)cc1F`: 161 to 162 °C; `CCNn1cc(C(=O)O)c(=O)c2cc3c(cc21)OCO3`: 242 °C.

Consider `C=CCOCc1ccc([N+](=O)[O-])cc1Nc1nccc(-c2cccnc2)n1`, for which the melting point was 213 to 215 °C.

`Cc1cc(OCc2ccccc2)c(C)cc1CO`: the melting point fell in the range of 58 to 59 °C.

`Cc1ccc(S(=O)(=S)OCCCCCCCCCCOS(=O)(=S)c2ccc(C)cc2)cc1` (stereo not drawn) had a melting point of 76 to 82 °C. Next, `N#CC(=Cc1ccc(C=Cc2ccccc2)cc1)S(=O)(=O)c1ccccc1`: 179 to 183 °C; `C=Cc1cc(Br)c(OC(C)=O)c(Br)c1`: 76 °C. Next, `COc1c(C#Cc2ccccc2)c(=O)c2ccc(Cl)cc2[nH]c1=O`: 204 to 205 °C; `CN1CCc2c(F)c(F)c(N)c3c(=O)c(C(=O)O)cn1c23`: above 290 °C; `CCC(O)(c1ccc(OCCCN2CCCCC2)cc1)c1ccccc1OC` (stereo not drawn): 110 to 111 °C. Compound `C[C@H](Cn1ncnn1)n1cnc2cc3c(=O)n(Cc4c[nH]nn4)nnc3cc2c1=O` yielded a melting point of 180 to 182 °C. Under `CC(C)Oc1cc(CCC(=O)O)n(Cc2ccc(C(F)(F)F)cc2Cl)n1` stands 122 °C; under `CCN1CCN(C(=O)c2ccc(-c3cc(C(=O)Cc4cccc(C)n4)ccn3)cc2)CC1`, 90 °C. Under `N#Cc1c(F)nc2ccc([N+](=O)[O-])cc2c1F` stands 128 to 129 °C; under `CC1(C)CCC(C)(C)c2cc(CCCn3cccn3)c(/C=C/c3ccc(C(=O)O)cc3)cc21`, 182 °C; under `Cn1ccnc1S(=O)c1ccccc1Cl` (stereo not drawn), 132 to 134 °C. Next, `CCCc1c(OCCC2Cc3cc(C(=O)CCC(=O)O)ccc3O2)ccc(C(C)=O)c1O` (stereo not drawn): 156 to 158 °C; `Brc1ccc2c(c1)Sc1ccccc1CC2`: 69 to 71 °C; `Cc1ccc(S(=O)(=O)OCC2COc3ccc([N+](=O)[O-])c(N)c3O2)cc1` (stereo not drawn): 155 °C.

Compound `CC(C)(CCc1nnn[nH]1)c1ccc(C(=O)Nc2cn3cc(-n4ccnc4)ccc3n2)cc1` displayed a melting point of 266 to 267 °C. Next, `CCCc1c(OCCCOc2ccc(C(=O)O)cc2Cl)ccc(C(C)=O)c1OC(C)=O`: 146 to 148 °C.
